IC50 data for 24 molecules are collected here from patent US9662327B2 (AGIOS PHARMACEUTICALS, INC, priority 2011, dated 2017).

IDH1 R132H, sequence (O75874 whole entry R132H): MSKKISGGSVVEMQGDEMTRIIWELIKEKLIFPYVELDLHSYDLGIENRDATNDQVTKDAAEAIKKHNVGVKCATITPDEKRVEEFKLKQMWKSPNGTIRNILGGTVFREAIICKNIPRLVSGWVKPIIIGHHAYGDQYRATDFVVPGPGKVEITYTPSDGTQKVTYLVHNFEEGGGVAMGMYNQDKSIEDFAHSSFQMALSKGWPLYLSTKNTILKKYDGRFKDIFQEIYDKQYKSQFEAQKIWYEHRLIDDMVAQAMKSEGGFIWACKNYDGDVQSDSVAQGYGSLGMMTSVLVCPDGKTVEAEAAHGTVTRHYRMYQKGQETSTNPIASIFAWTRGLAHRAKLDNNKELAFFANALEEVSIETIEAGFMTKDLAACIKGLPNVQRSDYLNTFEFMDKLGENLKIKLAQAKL

The target of the experiment is IDH1 R132H (Homo sapiens (Human), UniProt O75874, R132H). Briefly: Assays for IDH1 R132H Inhibitors (NADPH/aKG, resazurin detection). It is filed as biochemical. As to conditions: IDH1 R132H enzyme, Table 2; read-out: IDHR132H Activity. Put shortly:
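Mutant enzyme in 150 mM NaCl, 10 mM MgCl2, 20 mM Tris pH 7.5, 0.03% BSA; compound in DMSO added to substrate mix of 8 uM NADPH and 2 mM aKG. Reaction ran 50 min at room temperature, then resazurin detection mix (30 μM) added for 5 min at room temperature.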
As for `Cc1cnn(CC(=O)N2CCN(c3nc(C4CC4)c4c(c3C#N)CC(C)(C)OC4)C[C@H]2C(C)C)c1` [Compound 401, (R)-8-cyclopropyl-6-(3-isopropyl-4-(2-(4-methyl-1H-pyrazol-1-yl)acetyl)piperazin-1-yl)-3,3-dimethyl-3,4-dihydro-1H-pyrano[3,4-c]pyridine-5-carbonitrile], the IC50 is under 500 nM.

`CNC(=O)N1CCN(c2nc(C3CC3)c3c(c2C#N)CC(C)(C)OC3)C[C@H]1C(C)C` [Compound 344]: the IC50 is under 500 nM.

With `CCOC(=O)N1CCN(c2nc(C3CCCCC3)c3c(c2C#N)CCOC3)C[C@H]1C` [Compound 358, (R)-ethyl 4-(5-cyano-8-cyclohexyl-3,4-dihydro-1H-pyrano[3,4-c]pyridin-6-yl)-2-methylpiperazine-1-carboxylate], the IC50 is 1000 to 10000 nM.

In the case of `COCCC(=O)N1CCN(c2nc(C3CCC3)c3c(c2C#N)CC(C)(C)OC3)C[C@H]1C(C)C` [Compound 395, (R)-8-cyclobutyl-6-(3-isopropyl-4-(3-methoxypropanoyl)piperazin-1-yl)-3,3-dimethyl-3,4-dihydro-1H-pyrano[3,4-c]pyridine-5-carbonitrile], the IC50 was under 500 nM.

As for `Cc1occc1C(=O)N1CCN(c2nc(C(C)C)c3c(c2C#N)CCOC3)C(c2ccccc2)C1` (stereo not drawn) [Compound 177, 8-isopropyl-6-(4-(2-methylfuran-3-carbonyl)-2-phenylpiperazin-1-yl)-3,4-dihydro-1H-pyrano[3,4-c]pyridine-5-carbonitrile], the IC50 was in the range of 1000 to 10000 nM.

Regarding `CC1(C)Cc2c(C#N)c(N3CCN(C(=O)c4ccco4)[C@@H](c4ccccc4)C3)nc(C3CC3)c2CO1` [Compound 273], the IC50 was in the range of 500 to 1000 nM.

In the case of `CC(C)[C@@H]1CN(c2nc(C3CC3)c3c(c2C#N)CC(C)(C)OC3)CCN1C(=O)NCCc1ccccc1` [Compound 286], the IC50 lay within 1000 to 10000 nM.

Regarding `C[C@@H]1CN(c2nc(C3CCCCC3)c3c(c2C#N)CCOC3)CCN1C(=O)c1cccs1` [Compound 241, (R)-8-cyclohexyl-6-(3-methyl-4-(thiophene-2-carbonyl)piperazin-1-yl)-3,4-dihydro-1H-pyrano[3,4-c]pyridine-5-carbonitrile], the IC50 lay in the range of 1000 to 10000 nM.

With `CC(C)c1nc(N2CCN(C(=O)Cc3ccccc3)CC2)c(C#N)c2c1COC(C)(C)C2` [Compound 144, 8-isopropyl-3,3-dimethyl-6-(4-(2-phenylacetyl)piperazin-1-yl)-3,4-dihydro-1H-pyrano[3,4-c]pyridine-5-carbonitrile], the IC50 was 1000 to 10000 nM.

`C[C@@H]1CN(c2nc(C3CC3)c3c(c2C#N)CC(C)(C)OC3)CCN1C(=O)c1ccco1` [Compound 167]: the IC50 was 1000 to 10000 nM.

For the molecule `N#Cc1c(N2CCN(C(=O)c3ccc4[nH]ccc4c3)CC2)nc(C2CCCCC2)c2c1CCOC2` [Compound 122, 6-(4-(1H-indole-5-carbonyl)piperazin-1-yl)-8-cyclohexyl-3,4-dihydro-1H-pyrano[3,4-c]pyridine-5-carbonitrile], the IC50 lay in the range of 1000 to 10000 nM.

As to `C[C@@H]1CN(c2nc(C3CCCC3)c3c(c2C#N)CC(C)(C)OC3)C[C@H](C)N1C(=O)c1ccoc1` [Compound 146, 8-cyclopentyl-6-((3S,5R)-4-(furan-3-carbonyl)-3,5-dimethylpiperazin-1-yl)-3,3-dimethyl-3,4-dihydro-1H-pyrano[3,4-c]pyridine-5-carbonitrile], the IC50 lay in the range of 1000 to 10000 nM.

For `CC(C)[C@@H]1CN(c2nc(C3CC3)c3c(c2C#N)CC(C)(C)OC3)CCN1C(=O)Nc1ccc(C#N)cc1` [Compound 303, (R)-4-(5-cyano-8-cyclopropyl-3,3-dimethyl-3,4-dihydro-1H-pyrano[3,4-c]pyridin-6-yl)-N-(4-cyanophenyl)-2-isopropylpiperazine-1-carboxamide], the IC50 was 1000 to 10000 nM.

Take `CC1CN(c2nc(C3CCCCC3)c3c(c2C#N)CCOC3)CCN1C(=O)c1ccc2[nH]ccc2c1` (stereo not drawn) [Compound 134, 6-(4-(1H-indole-5-carbonyl)-3-methylpiperazin-1-yl)-8-cyclohexyl-3,4-dihydro-1H-pyrano[3,4-c]pyridine-5-carbonitrile]: the IC50 is 1000 to 10000 nM.

`CC(C)c1nc(N2CCN(C(=O)c3ccco3)CC2c2ccccc2)c(C#N)c2c1COCC2` (stereo not drawn) [Compound 111, 6-(4-(furan-2-carbonyl)-2-phenylpiperazin-1-yl)-8-isopropyl-3,4-dihydro-1H-pyrano[3,4-c]pyridine-5-carbonitrile]: the IC50 fell in the range of 1000 to 10000 nM.

Regarding `COC(=O)CN1CCN(c2nc(C3CC3)c3c(c2C#N)CC(C)(C)OC3)C[C@H]1C(C)C` [Compound 397, (R)-methyl 2-(4-(5-cyano-8-cyclopropyl-3,3-dimethyl-3,4-dihydro-1H-pyrano[3,4-c]pyridin-6-yl)-2-isopropylpiperazin-1-yl)acetate], the IC50 lay within 1000 to 10000 nM.

Turning to `CC(C)[C@@H]1CN(c2nc(C3CC3)c3c(c2C#N)CC(C)(C)OC3)CCN1C(=O)COCC1CC1` [Compound 390], the IC50 fell in the range of 500 to 1000 nM.

As to `CC(C)c1nc(N2CCN(C(=O)c3ccoc3)[C@H](C)C2)c(C#N)c2c1COC(C)(C)C2` [Compound 149, (R)-6-(4-(furan-3-carbonyl)-3-methylpiperazin-1-yl)-8-isopropyl-3,3-dimethyl-3,4-dihydro-1H-pyrano[3,4-c]pyridine-5-carbonitrile], the IC50 lay in the range of 1000 to 10000 nM.

Take `CC1(C)Cc2c(C#N)c(N3CCN(C(=O)c4ccco4)[C@H](c4ccccc4)C3)nc(C3CC3)c2CO1` [Compound 272]: the IC50 lay within 500 to 1000 nM.

Regarding `Cc1ccoc1C(=O)N1CCN(c2nc(C(C)C)c3c(c2C#N)CC(C)(C)OC3)C[C@H]1C` [Compound 173, (R)-8-isopropyl-3,3-dimethyl-6-(3-methyl-4-(3-methylfuran-2-carbonyl)piperazin-1-yl)-3,4-dihydro-1H-pyrano[3,4-c]pyridine-5-carbonitrile], the IC50 was in the range of 1000 to 10000 nM.

Regarding `CC[C@@H]1CN(c2nc(C(C)C)c3c(c2C#N)CC(C)(C)OC3)CCN1C(=O)c1ccoc1C` [Compound 207, (R)-6-(3-ethyl-4-(2-methylfuran-3-carbonyl)piperazin-1-yl)-8-isopropyl-3,3-dimethyl-3,4-dihydro-1H-pyrano[3,4-c]pyridine-5-carbonitrile], the IC50 is under 500 nM.

`CC(C)c1nc(N2CCN(C(=O)c3ccoc3)[C@H](C)C2)c(C#N)c2c1COCC2` [Compound 140, (R)-6-(4-(furan-3-carbonyl)-3-methylpiperazin-1-yl)-8-isopropyl-3,4-dihydro-1H-pyrano[3,4-c]pyridine-5-carbonitrile]: the IC50 lay within 1000 to 10000 nM.

Consider `CSCCC(=O)N1CCN(c2nc(C3CCCCC3)c3c(c2C#N)CCOC3)C[C@H]1C` [Compound 264, (R)-8-cyclohexyl-6-(3-methyl-4-(3-(methylthio)propanoyl)piperazin-1-yl)-3,4-dihydro-1H-pyrano[3,4-c]pyridine-5-carbonitrile], for which the IC50 was 1000 to 10000 nM.

With `CC(C)c1nc(N2CCN(C(=O)c3csc4ccccc34)[C@H](C)C2)c(C#N)c2c1COC(C)(C)C2` [Compound 247, (R)-6-(4-(benzo[b]thiophene-3-carbonyl)-3-methylpiperazin-1-yl)-8-isopropyl-3,3-dimethyl-3,4-dihydro-1H-pyrano[3,4-c]pyridine-5-carbonitrile], the IC50 is 1000 to 10000 nM.
